Test results reported in patent publication US20130253015A1, “Cyclodextrin-Based Microemulsions, and Dermatological Uses Thereof” (PRECISION DERMATOLOGY, INC., priority 2012, published 2013).

Columns and labels:
[1] = Solubility/dispersibility of retinol in Labrasol-HPGCD-water microemulsion systems; type: physicochemical
From the text: Drug used: 1. Solid Retinol (98%) from Sigma, 2.
Cyclodextrin used: hydroxypropyl-X-cyclodextrin (X=alpha, beta, or gamma).

[2] = cited from earlier work

- amount of retinol that can be incorporated into cyclodextrin-based microemulsions ([1]; cyclodextrin-based microemulsions of the invention): greater than 1.0 wt %
- miscibility in Labrasol-HPGCD-water microemulsion system ([1]; final retinol concentration 1.2%, clear transparent system (FIG. 4(b), 4(c))): complete miscibility
Compound: CC1=C(/C=C/C(C)=C/C=C/C(C)=C/CO)C(C)(C)CCC1 [solid retinol, Retinol]
- miscibility in water [2]: immiscible in water
